# Tested on: Staphylococcus aureus
# Assay: Microorganism kill against airborne Staphylococcus aureus, pre and post filtration
# Type: cell-based
# Settings: TEG pipetted onto hotplate @ 250° C.
smiles,measurement,setting,value
"OCCOCCOCCO [TEG, triethylene glycol]",Microorganism kill against Staphylococcus aureus (log10 reduction),Post-Filtration,3 log10 reduction
same,"Microorganism kill against Staphylococcus aureus, time to 3 log10 reduction",Post-Filtration,in 33 min
same,Microorganism kill against Staphylococcus aureus (log10 reduction),Pre-Filtration,3 log10 reduction
same,"Microorganism kill against Staphylococcus aureus, time to 3 log10 reduction",Pre-Filtration,in 18.2 min
